Measured values: PubChem BioAssay AID1963870 (Molecular Pharmacology Branch, DTP, NCI, 2024)
Several values for one entry are separate records, joined by “and”; a condition that tells them apart may be missing. Equal values may be shown once.

System: 292921-168-R-J2-PDC KRAS tumor spheroid viability
Test: Anticancer human tumor 292921-168-R-J2-PDC patient-derived pancreatic carcinoma cell line growth inhibition [KRAS2]
Settings: spheroids with HUVEC and MSC; for viability, T/C: stronger effect = lower value
Source text: Multicellular complex tumor spheroid response to RAS pathway inhibitors in combination with a targeted agents in patient-derived cell lines with oncogenic KRAS variants from multiple cancer types
A high-throughput screen of multi-cell type tumor spheroids was designed to identify active combinations of targeted small molecules and KRAS pathway inhibitors. Complex spheroids include a stromal component modeled by human endothelial cells (HUVEC) and fibroblasts modeled by human mesenchymal stem cells (MSCs). The concentration ranges selected for each drug and investigational agent were based upon clinically achievable concentrations if the clinical Cmax of the agent was known.
Compounds. The drugs and investigational agents: BI-3406 (NSC825286), BAY-293 (NSC824723), batoprotafib (TNO155; NSC825523), sotorasib (AMG 510; NSC818433), MRTX1257 (NSC819558), elimusertib (BAY 1895344; NSC800525), molibresib (GSK525762; NSC774829), temuterkib (LY3214996; NSC803410), venetoclax (NSC766270), alisertib (NSC759677), olaparib (NSC753686), talazoparib (NSC767125), erdafitinib (NSC781556), ipatasertib (NSC767898), cabozantinib (NSC761068), nintedanib (NSC756659), abemaciclib (NSC768073), docetaxel (NSC628503), trametinib (NSC758246), and sapanisertib (NSC764658) were obtained from the National Cancer Institute (NCI) Developmental Therapeutics Program Chemical Repository. The FDA-approved anticancer drug set is available from the Developmental Therapeutics Program. […] The stock solutions were prepared in dimethyl sulfoxide (DMSO, Sigma-Aldrich, St. Louis, MO, cat. D2650) at 800-fold the tested concentration and stored at -70 degrees C prior to their use. All drugs and investigational agents were tested over a range starting from a high concentration at or near the clinical Cmax and decreasing in half-log increments. If the clinical Cmax for an agent had not been determined, the highest concentration tested was 10 microM.
Cell Culture. All cells were maintained in an incubator at 37 degrees C and 5% CO2 with 95% humidity. The PDC lines were cultured according to standard operating procedures established by the NCI PDMR (https://pdmr.cancer.gov/sops/default.htm). Briefly, all PDCs were thawed and cultured in Matrigel-coated flasks prepared with a working solution of 1X Ham's F-12 nutrient mix, without supplementation (Invitrogen, Waltham, MA, cat. 11765054), 100 U/mL penicillin-streptomycin (Invitrogen, cat. 15140122), and 2.5% Matrigel (Corning Inc., Corning, NY, cat. 354248) for the first three passages. All PDCs were cultured in complete DMEM/F-12 media containing advanced DMEM/F-12 (Invitrogen, cat. 12634028), 4.9% defined fetal bovine serum, heat inactivated (HyClone Laboratories Inc., Logan, UT, cat. SH30070.03HI), 389 ng/mL hydrocortisone (Sigma-Aldrich, cat. H4001), 9.7 ng/mL human EGF recombinant protein (Invitrogen, cat. PHG0313), 23.4 microg/mL adenine (Sigma-Aldrich, cat. A2786), 97.3 U/mL penicillin-streptomycin (Invitrogen, cat. 15140122), 1.9 mM L-glutamine (Invitrogen, cat. 25030081), and 9.7 microM Y-27632 dihydrochloride (Tocris Bioscience, Bristol, United Kingdom, cat. 1254). The PDCs were cultured in complete DMEM/F12 media without 9.7 microM Y-27632 dihydrochloride for at least two passages prior to the screen. The established cell line HOP-62 was cultured in RPMI 1640 medium, HEPES (Invitrogen, cat. 22400105) with 10% defined fetal bovine serum (HyClone Laboratories Inc., cat. SH30070.03) and 2 mM L-glutamine (Invitrogen, cat. 25030081). The pooled donor HUVEC were cultured in endothelial cell growth medium 2 (PromoCell, Heidelberg, Germany, cat. C-22011) and the hMSC were cultured in mesenchymal stem cell growth medium 2 (PromoCell, cat. C-28009). For all experiments, HUVEC and hMSC were used at passages </=5, while the malignant cell lines were used at passages </=15. […]

[1] = curve of first compound, second compound 0.1 µM
[2] = curve of first compound, second compound 0.316 µM
[3] = curve of first compound, second compound 1 µM
[4] = curve of first compound, second compound 3.16 µM
[5] = second compound 0.1 µM, first compound 0.0316 µM
[6] = second compound 0.1 µM, first compound 0.1 µM
[7] = second compound 0.1 µM, first compound 0.316 µM
[8] = second compound 0.1 µM, first compound 1 µM
[9] = second compound 0.1 µM, first compound 3.16 µM
[10] = second compound 0.1 µM, first compound 10 µM
[11] = second compound 0.316 µM, first compound 0.0316 µM
[12] = second compound 0.316 µM, first compound 0.1 µM
[13] = second compound 0.316 µM, first compound 0.316 µM
[14] = second compound 0.316 µM, first compound 1 µM
[15] = second compound 0.316 µM, first compound 3.16 µM
[16] = second compound 0.316 µM, first compound 10 µM
[17] = second compound 1 µM, first compound 0.0316 µM
[18] = second compound 1 µM, first compound 0.1 µM
[19] = second compound 1 µM, first compound 0.316 µM
[20] = second compound 1 µM, first compound 1 µM
[21] = second compound 1 µM, first compound 3.16 µM
[22] = second compound 1 µM, first compound 10 µM
[23] = second compound 3.16 µM, first compound 0.0316 µM
[24] = second compound 3.16 µM, first compound 0.1 µM
[25] = second compound 3.16 µM, first compound 0.316 µM
[26] = second compound 3.16 µM, first compound 1 µM
[27] = second compound 3.16 µM, first compound 3.16 µM
[28] = second compound 3.16 µM, first compound 10 µM
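Also: drug exposure lasted seven days after spheroids formed for three days.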
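For viability, T/C in this document: percent of DMSO vehicle control viability which is 100%.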

SMILES	IC50 [1]	IC50 [2]	IC50 [3]	IC50 [4]	viability, T/C [5]	viability, T/C [6]	viability, T/C [7]	viability, T/C [8]	viability, T/C [9]	viability, T/C [10]	viability, T/C [11]	viability, T/C [12]	viability, T/C [13]	viability, T/C [14]	viability, T/C [15]	viability, T/C [16]	viability, T/C [17]	viability, T/C [18]	viability, T/C [19]	viability, T/C [20]	also measured
COc1cc2nccc(Oc3ccc(NC(=O)C4(C(=O)Nc5ccc(F)cc5)CC4)cc3)c2cc1OC	–	–	–	–	–	–	–	–	–	–	–	–	–	–	–	–	–	–	–	–	viability, T/C (compound 0.0316 µM): 104% (3×) and 112% and 103%; viability, T/C (compound 0.1 µM): 99.3% [middle of 5 runs]; viability, T/C (compound 0.316 µM): 96.6% [middle of 5 runs]; viability, T/C (compound 3.16 µM): 33.9% [middle of 5 runs]; viability, T/C (compound 10 µM): 19.6% [middle of 5 runs]; IC50 (curve of compound): 2.1 µM [middle of 5 runs]
COC(=O)c1ccc2c(C(=Nc3ccc(N(C)C(=O)CN4CCN(C)CC4)cc3)c3ccccc3)c(O)[nH]c2c1 + C=CC(=O)N1CCN(c2nc(OCC3CCCN3C)nc3c2CCN(c2cccc4cccc(C)c24)C3)CC1CC#N	< 31.6 nM	< 31.6 nM	< 31.6 nM	< 31.6 nM	26.5%	22.9%	15.5%	9.38%	5.32%	0.11%	23.6%	19.6%	13.4%	7.92%	2.44%	0.07%	16.7%	16.4%	9.48%	6.16%	IC50 (curve of first compound, second compound 0.0316 µM): < 31.6 nM; viability, T/C (second compound 0.0316 µM, first compound 0.0316 µM): 33%; viability, T/C (second compound 0.0316 µM, first compound 0.1 µM): 26.1%; viability, T/C (second compound 0.0316 µM, first compound 0.316 µM): 16.8%; viability, T/C (second compound 0.0316 µM, first compound 1 µM): 10.2%; viability, T/C (second compound 0.0316 µM, first compound 3.16 µM): 3.16%; viability, T/C (second compound 0.0316 µM, first compound 10 µM): 0.05%; viability, T/C [21]: 0.43%; viability, T/C [22]: 0.03%; viability, T/C [23]: 0.16%; viability, T/C [24]: 0.08%; viability, T/C [25]: 0.07%; viability, T/C [26]: 0.05%; viability, T/C [27]: 0.04%; viability, T/C [28]: 0.05%
CCNC(=O)CC1N=C(c2ccc(Cl)cc2)c2cc(OC)ccc2-n2c(C)nnc21 (stereo unspecified) + C=CC(=O)N1CCN(c2nc(=O)n(-c3c(C)ccnc3C(C)C)c3nc(-c4c(O)cccc4F)c(F)cc23)C(C)C1	6090 nM	6080 nM	4240 nM	530 nM	111%	104%	77.2%	63.1%	60.7%	43.4%	117%	103%	81.1%	68.8%	63%	41.5%	109%	97%	77.6%	65.4%	IC50 (curve of first compound, second compound 10 µM): < 31.6 nM; viability, T/C [21]: 54.8%; viability, T/C [22]: 40.7%; viability, T/C [23]: 78.2%; viability, T/C [24]: 69.1%; viability, T/C [25]: 53.1%; viability, T/C [26]: 43.8%; viability, T/C [27]: 35.6%; viability, T/C [28]: 26.4%; viability, T/C (second compound 10 µM, first compound 0.0316 µM): 29.1%; viability, T/C (second compound 10 µM, first compound 0.1 µM): 26.2%; viability, T/C (second compound 10 µM, first compound 0.316 µM): 23.8%; viability, T/C (second compound 10 µM, first compound 1 µM): 16.8%; viability, T/C (second compound 10 µM, first compound 3.16 µM): 9.64%; viability, T/C (second compound 10 µM, first compound 10 µM): 6.83%
